Experimental data: PMC12135066, “Design and Preclinical Evaluation of Novel uPAR-Targeting Radiopeptides Modified with an Albumin-Binding Entity” (Molecular Pharmaceutics, 2025)

Assay: Stability of the radiopeptides in mouse blood plasma
Conditions: for remaining at 1 h, 10 MBq/200 µL / remaining at 24 h, 10 MBq/200 µL / remaining at 4 h, 10 MBq/200 µL: mouse; for remaining at 1 h, 10 MBq/200 µL / remaining at 24 h, 10 MBq/200 µL: blood plasma
Experimental: The radiopeptides (50 MBq/nmol) stabilized with L-ascorbic acid were diluted in mouse and human blood plasma and incubated at 37 °C. Aliquots were taken after 1, 4, and 24 h and analyzed using reversed-phase thin-layer chromatography (TLC) (Supporting Information).
aProduct peak expressed as percentage of the sum of integrated peak areas of the entire chromatogram relative to
the value obtained immediately after labeling (set as 100%), average ± standard deviation (SD) (n=3).
Stability of the Radiopeptides in Mouse and Human Blood Plasma
Purpose: The stability of the radiopeptides was assessed in mouse and human blood plasma as an
indication for their in vivo stability.
Methods: The radiopeptides (50 MBq/nmol) stabilized with L-ascorbic acid were diluted in mouse
blood plasma (Lot: 32321, Rockland Immunochemicals Inc., U.S.A.) or in human blood plasma
(Stiftung Blutspende SRK Aargau -Solothurn, Switzerland) at a concentration of 10 MBq/200 µL and
incubated at 37 °C over a 24 h time period. Control samples were prepared by diluting the radiopeptides
in saline at the same activity concentration. Aliquots of each dilution were taken after 1 h, 4 h, and 24 h
(2 µL, ~100 kBq) and investigated employing thin layer chromatography (TLC) methods on reversed-
phase TLC plates (MERCK Analytical Chromatography, TLC Silica gel 60 RP -18 F254s) as stationary
phase and a 3/7 (v/v) mixture of acetonitrile /citrate buffer (0.1 M, pH 5.5) as mobile phase. A dilution
of [177Lu]LuCl3/HCl 0.04 M (10 MBq/200 µL) was added on each TLC plate. The developed and dried
TLC plates were exposed to a phosphor screen (Super resolution screen PSR10450013, PerkinElmer)
for 1 min. The screen was read with a Cyclone Plus phosphor imager (PerkinElmer) and the peak
quantification was performed using OptiQuant Software (version 5.0).

| Compound | Intact radiopeptide in mouse blood plasma [%] (24 h, mouse blood plasma, 10 MBq/200 µL, 50 MBq/nmol, stabilized with L-ascorbic acid, 37 °C, reversed-phase TLC, phosphor imager, relative to t=0 (100%), average ± SD, n=3) | remaining at 1 h, 10 MBq/200 µL [%] | remaining at 24 h, 10 MBq/200 µL [%] | remaining at 4 h, 10 MBq/200 µL (mouse blood plasma) [%] |
| --- | --- | --- | --- | --- |
| CC(C)C[C@H](NC(=O)[C@H](Cc1ccc(O)cc1)NC(=O)[C@@H](CCCNC(=N)N)NC(=O)[C@@H](CO)NC(=O)[C@H](Cc1ccccc1)NC(=O)[C@H](CC1CCCCC1)NC(=O)[C@H](CC(=O)O)NC(=O)CN1CCN(CC(=O)O)CCN(CC(=O)O)CCN(CC(=O)O)CC1)C(=O)N[C@@H](Cc1c[nH]c2ccccc12)C(=O)N[C@@H](CO)C(N)=O [[^177Lu]Lu-DOTA-AE105, metal not drawn, reference compound] | ~4.5 | 61 ± 6 | 4.6 ± 2.2 | ~13 |
| CC(C)C[C@H](NC(=O)[C@H](Cc1ccc(O)cc1)NC(=O)[C@@H](CCCNC(=N)N)NC(=O)[C@@H](CO)NC(=O)[C@H](Cc1ccccc1)NC(=O)[C@H](CC1CCCCC1)NC(=O)[C@H](CC(=O)O)NC(=O)[C@H](CCCCNC(=O)CCCc1ccc(I)cc1)NC(=O)CN1CCN(CC(=O)O)CCN(CC(=O)O)CCN(CC(=O)O)CC1)C(=O)N[C@@H](Cc1c[nH]c2ccccc12)C(=O)N[C@@H](CO)C(N)=O [[^177Lu]Lu-uPAR-01, metal not drawn] | – | 100 | 99 ± 1 | 100 |
| CC(C)C[C@H](NC(=O)[C@H](Cc1ccc(O)cc1)NC(=O)[C@@H](CCCNC(=N)N)NC(=O)[C@@H](CO)NC(=O)[C@H](Cc1ccccc1)NC(=O)[C@H](CC1CCCCC1)NC(=O)[C@H](CC(=O)O)NC(=O)[C@H](CCCCNC(=O)CCCc1ccc(I)cc1)NC(=O)[C@@H](N)CCCCNC(=O)CN1CCN(CC(=O)O)CCN(CC(=O)O)CCN(CC(=O)O)CC1)C(=O)N[C@@H](Cc1c[nH]c2ccccc12)C(=O)N[C@@H](CO)C(N)=O [[^177Lu]Lu-uPAR-04, metal not drawn] | – | 101 ± 2 | 98 | 99 ± 3 |
| CC(C)C[C@H](NC(=O)[C@H](Cc1ccc(O)cc1)NC(=O)[C@@H](CCCNC(=N)N)NC(=O)[C@@H](CO)NC(=O)[C@H](Cc1ccccc1)NC(=O)[C@H](CC1CCCCC1)NC(=O)[C@H](CC(=O)O)NC(=O)CCOCCOCCOCCOCCNC(=O)[C@H](CCCCNC(=O)CCCc1ccc(I)cc1)NC(=O)CN1CCN(CC(=O)O)CCN(CC(=O)O)CCN(CC(=O)O)CC1)C(=O)N[C@@H](Cc1c[nH]c2ccccc12)C(=O)N[C@@H](CO)C(N)=O [[^177Lu]Lu-uPAR-05, metal not drawn] | – | 99 ± 1 | 98 ± 2 | 98 ± 2 |
